Source: the NIST ThermoML archive (doi:10.1021/acs.jced.5b00105)

Test: xn = mol fraction of the nth substance listed
Conditions: for surface tension liquid-gas: Drop volume; for viscosity / mass density: 100 kPa, Liquid; for viscosity: Concentric cylinders viscometry; for mass density: Vibrating tube method

CCC1CCCCC1 [ethylcyclohexane] + CC(C)CC(C)(C)C
Conditions	mass density [kg/m3]	surface tension liquid-gas [mN/m]	viscosity [mPa·s]
293.15 K, x1 = 0.1	700.76	19.51	0.54
293.15 K, x1 = 0.1999	–	19.99	–
293.15 K, x1 = 0.2	709.8	–	0.565
293.15 K, x1 = 0.3	–	20.57	–
293.15 K, x1 = 0.3003	719.07	–	0.591
293.15 K, x1 = 0.3997	728.38	–	0.619
293.15 K, x1 = 0.4	–	21.13	–
293.15 K, x1 = 0.5	–	21.74	–
293.15 K, x1 = 0.5002	737.96	–	0.65
293.15 K, x1 = 0.6001	–	22.44	–
293.15 K, x1 = 0.6005	747.68	–	0.684
293.15 K, x1 = 0.7002	757.5	–	0.719
293.15 K, x1 = 0.7004	–	23.16	–
293.15 K, x1 = 0.8001	–	24	–
293.15 K, x1 = 0.8003	767.49	–	0.758
293.15 K, x1 = 0.8994	–	24.75	–
293.15 K, x1 = 0.8997	777.58	–	0.801
293.15 K, x1 = 1	787.98	25.47	0.848
298.15 K, x1 = 0.1	696.71	18.91	0.513
298.15 K, x1 = 0.1999	–	19.38	–
298.15 K, x1 = 0.2	705.71	–	0.536
298.15 K, x1 = 0.3	–	19.88	–
298.15 K, x1 = 0.3003	715.02	–	0.56
298.15 K, x1 = 0.3997	724.34	–	0.586
298.15 K, x1 = 0.4	–	20.4	–
298.15 K, x1 = 0.5	–	21.01	–
298.15 K, x1 = 0.5002	733.9	–	0.613
298.15 K, x1 = 0.6001	–	21.67	–
298.15 K, x1 = 0.6005	743.64	–	0.644
298.15 K, x1 = 0.7002	753.47	–	0.677
298.15 K, x1 = 0.7004	–	22.45	–
298.15 K, x1 = 0.8001	–	23.23	–
298.15 K, x1 = 0.8003	763.46	–	0.712
298.15 K, x1 = 0.8994	–	24	–
298.15 K, x1 = 0.8997	773.57	–	0.751
298.15 K, x1 = 1	783.97	24.76	0.793
303.15 K, x1 = 0.1	692.57	18.49	0.489
303.15 K, x1 = 0.2	701.62	18.96	0.509
303.15 K, x1 = 0.3003	710.92	19.61	0.531
303.15 K, x1 = 0.3997	720.25	19.97	0.555
303.15 K, x1 = 0.5002	729.84	20.62	0.581
303.15 K, x1 = 0.6005	739.57	21.24	0.609
303.15 K, x1 = 0.7002	749.4	22.12	0.638
303.15 K, x1 = 0.8003	759.41	22.89	0.671
303.15 K, x1 = 0.8997	769.52	23.75	0.706
303.15 K, x1 = 1	779.93	24.55	0.745
308.15 K, x1 = 0.1	688.43	18	0.466
308.15 K, x1 = 0.1999	–	18.45	–
308.15 K, x1 = 0.2	697.49	–	0.485
308.15 K, x1 = 0.3	–	18.91	–
308.15 K, x1 = 0.3003	706.8	–	0.505
308.15 K, x1 = 0.3997	716.14	–	0.527
308.15 K, x1 = 0.4	–	19.39	–
308.15 K, x1 = 0.5	–	19.98	–
308.15 K, x1 = 0.5002	725.74	–	0.55
308.15 K, x1 = 0.6001	–	20.65	–
308.15 K, x1 = 0.6005	735.47	–	0.577
308.15 K, x1 = 0.7002	745.32	–	0.604
308.15 K, x1 = 0.7004	–	21.4	–
308.15 K, x1 = 0.8001	–	22.11	–
308.15 K, x1 = 0.8003	755.35	–	0.634
308.15 K, x1 = 0.8994	–	22.94	–
308.15 K, x1 = 0.8997	765.46	–	0.666
308.15 K, x1 = 1	775.88	23.74	0.702
313.15 K, x1 = 0.1	–	–	0.446
313.15 K, x1 = 0.1012	684.26	–	–
313.15 K, x1 = 0.2	–	–	0.464
313.15 K, x1 = 0.2003	693.35	–	–
313.15 K, x1 = 0.3001	702.64	–	–
313.15 K, x1 = 0.3003	–	–	0.482
313.15 K, x1 = 0.3997	–	–	0.503
313.15 K, x1 = 0.4019	712.01	–	–
313.15 K, x1 = 0.5002	–	–	0.524
313.15 K, x1 = 0.5008	721.61	–	–
313.15 K, x1 = 0.6	731.36	–	–
313.15 K, x1 = 0.6005	–	–	0.548
313.15 K, x1 = 0.6998	741.23	–	–
313.15 K, x1 = 0.7002	–	–	0.573
313.15 K, x1 = 0.8	751.26	–	–
313.15 K, x1 = 0.8003	–	–	0.601
313.15 K, x1 = 0.8997	–	–	0.63
313.15 K, x1 = 0.9	761.39	–	–
313.15 K, x1 = 1	771.82	–	0.663
318.15 K, x1 = 0.1	–	–	0.429
318.15 K, x1 = 0.1012	680.05	–	–
318.15 K, x1 = 0.2	–	–	0.445
318.15 K, x1 = 0.2003	689.16	–	–
318.15 K, x1 = 0.3001	698.38	–	–
318.15 K, x1 = 0.3003	–	–	0.461
318.15 K, x1 = 0.3997	–	–	0.481
318.15 K, x1 = 0.4019	707.8	–	–
318.15 K, x1 = 0.5002	–	–	0.5
318.15 K, x1 = 0.5008	717.38	–	–
318.15 K, x1 = 0.6	727.09	–	–
318.15 K, x1 = 0.6005	–	–	0.522
318.15 K, x1 = 0.6998	737.02	–	–
318.15 K, x1 = 0.7002	–	–	0.548
318.15 K, x1 = 0.8	747.05	–	–
318.15 K, x1 = 0.8003	–	–	0.573
318.15 K, x1 = 0.8997	–	–	0.598
318.15 K, x1 = 0.9	757.21	–	–
318.15 K, x1 = 1	767.69	–	0.628
323.15 K, x1 = 0.1	–	–	0.412
323.15 K, x1 = 0.1012	675.82	–	–
323.15 K, x1 = 0.2	–	–	0.427
323.15 K, x1 = 0.2003	684.95	–	–
323.15 K, x1 = 0.3001	694.19	–	–
323.15 K, x1 = 0.3003	–	–	0.442
323.15 K, x1 = 0.3997	–	–	0.46
323.15 K, x1 = 0.4019	703.63	–	–
323.15 K, x1 = 0.5002	–	–	0.478
323.15 K, x1 = 0.5008	713.22	–	–
323.15 K, x1 = 0.6	722.95	–	–
323.15 K, x1 = 0.6005	–	–	0.499
323.15 K, x1 = 0.6998	732.88	–	–
323.15 K, x1 = 0.7002	–	–	0.522
323.15 K, x1 = 0.8	742.93	–	–
323.15 K, x1 = 0.8003	–	–	0.546
323.15 K, x1 = 0.8997	–	–	0.569
323.15 K, x1 = 0.9	753.1	–	–
323.15 K, x1 = 1	763.59	–	0.597
333.15 K, x1 = 0.1	–	–	0.383
333.15 K, x1 = 0.1012	667.27	–	–
333.15 K, x1 = 0.2	–	–	0.396
333.15 K, x1 = 0.2003	676.43	–	–
333.15 K, x1 = 0.3001	685.73	–	–
333.15 K, x1 = 0.3003	–	–	0.409
333.15 K, x1 = 0.3997	–	–	0.425
333.15 K, x1 = 0.4019	695.2	–	–
333.15 K, x1 = 0.5002	–	–	0.44
333.15 K, x1 = 0.5008	704.82	–	–
333.15 K, x1 = 0.6	714.58	–	–
333.15 K, x1 = 0.6005	–	–	0.457
333.15 K, x1 = 0.6998	724.55	–	–
333.15 K, x1 = 0.7002	–	–	0.478
333.15 K, x1 = 0.8	734.62	–	–
333.15 K, x1 = 0.8003	–	–	0.498
333.15 K, x1 = 0.8997	–	–	0.518
333.15 K, x1 = 0.9	744.81	–	–
333.15 K, x1 = 1	755.35	–	0.541
343.15 K, x1 = 0.1	–	–	0.358
343.15 K, x1 = 0.1012	658.57	–	–
343.15 K, x1 = 0.2	–	–	0.369
343.15 K, x1 = 0.2003	667.78	–	–
343.15 K, x1 = 0.3001	677.13	–	–
343.15 K, x1 = 0.3003	–	–	0.38
343.15 K, x1 = 0.3997	–	–	0.395
343.15 K, x1 = 0.4019	686.64	–	–
343.15 K, x1 = 0.5002	–	–	0.408
343.15 K, x1 = 0.5008	696.31	–	–
343.15 K, x1 = 0.6	706.12	–	–
343.15 K, x1 = 0.6005	–	–	0.423
343.15 K, x1 = 0.6998	716.12	–	–
343.15 K, x1 = 0.7002	–	–	0.441
343.15 K, x1 = 0.8	726.23	–	–
343.15 K, x1 = 0.8003	–	–	0.458
343.15 K, x1 = 0.8997	–	–	0.476
343.15 K, x1 = 0.9	736.46	–	–
343.15 K, x1 = 1	747.03	–	0.496
